≈ marks a conversion by molar mass, not a printed value. Where “and” joins values, the source holds several entries; their conditions need not be identical. Equal values may be shown once. Read-outs that look alike come from different tables or passages of the source.
Tests used:
C1A Prp8 intein mutant = molecular target: T1, C1A Prp8 intein mutant (Cryptococcus gattii, UniProt E6R027, C1531A); conditions: C1A versus WT, SPR
T1 sequence (E6R027 1531-1700 C1531A): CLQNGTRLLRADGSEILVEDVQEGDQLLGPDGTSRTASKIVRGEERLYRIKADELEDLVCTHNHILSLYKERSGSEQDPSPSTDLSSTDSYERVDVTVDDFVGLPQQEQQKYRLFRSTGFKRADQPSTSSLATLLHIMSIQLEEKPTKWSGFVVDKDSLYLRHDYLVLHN
Procedure: The Prp8 intein and mutants were immobilized onto a ProteOn™ GLH sensor chip (2,500-7,000 RU) (Bio-Rad). A 3-fold dilution series of compounds was injected as the analytes. A blank surface blocked by ethanolamine was used as the control surface. The experiment was carried out at a flow rate of 100 μl/min using a PBSTD buffer containing 1×PBS, 0.005% surfactant P20, and 5% DMSO. Association (ka) and dissociation (kd) rates, as well as the dissociation constant (KD), were obtained by global fitting of the SPR data from multiple concentrations to a simple 1:1 Langmuir binding model, using the ProteOn Manager software suite (Bio-Rad).

C. neoformans strain H99 = assay: Minimum fungicidal concentration (MFC) determination; type: cell-based; conditions: Cryptococcus neoformans
Procedure: […] cells (100 ul of 0.5×10^5/ml) in log phase were added to each well. […] Then, the cultured cells in selected wells were first suspended by gentle pipetting. 50 μl of the cell culture suspension from each well was plated onto the Sabouraud dextrose agar (SDA) plates and further incubated for 48 h. MFC is defined as the minimum concentration where there is no growth after plating to the SDA plates. […] To determine minimum fungicidal concentration (MFC), the cultured cells in selected wells were first suspended by gentle pipetting. Then 50 ul of the cell culture suspension from each well was plated onto the Sabouraud dextrose agar (SDA) plates and further incubated for 48 h. MFC is defined as the minimum fungicidal concentration where there is no growth after plating on the SDA plates.

in vitro = type: cell-based, human; conditions: human, CC50 A549
How it was run: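 A549 cells (5×10^3 per well) were exposed to compounds at 37 °C for 48 h, and viability was read by MTT assay; N=3.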

C. neoformans H99 strain = assay: Fungal susceptibility test, broth microdilution MIC; type: cell-based, Cryptococcus neoformans; conditions: for MIC: Cryptococcus neoformans, H99STRAIN
How it was run: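 Compound MICs were determined by broth microdilution using a compound concentration series.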

[1] = tested on: C. neoformans H99 strain transformed with empty vector, WT Prp8 or AAAA mutant; assay: Resistance study, MIC in H99 overexpressing Prp8 intein; type: cell-based, Cryptococcus neoformans
Procedure: For resistance studies, C. neoformans H99 strain transformed with an empty pXL1-PTEF1 vector, the Prp8-pXL1-PTEF1 (WT Prp8) construct, or the AAAA mutant were used, as described. Li et al., “Cisplatin Protects Mice From Challenge of Cryptococcus Neoformans by Targeting the Prp8 Intein,” Emerging Microbes & Infections 8(1):895-908 (2019), which is hereby incorporated by reference in its entirety. MICs for selected compounds were determined for these transformed cells as described above.

papain = molecular target: T2, papain (Carica papaya, UniProt P00784); assay: Papain protease inhibition (Abz FRET substrate); type: biochemical; conditions: compound at 400 μM
T2 construct: purchased Sigma-Aldrich
T2 sequence (P00784 134-345): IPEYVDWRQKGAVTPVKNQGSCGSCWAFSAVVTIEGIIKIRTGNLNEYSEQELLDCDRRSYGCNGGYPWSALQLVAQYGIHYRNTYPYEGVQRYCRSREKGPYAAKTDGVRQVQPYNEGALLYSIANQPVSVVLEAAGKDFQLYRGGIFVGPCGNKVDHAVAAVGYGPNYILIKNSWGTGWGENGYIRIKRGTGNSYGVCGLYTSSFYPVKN
Procedure: Trypsin and papain protease inhibition—An Abz FRET substrate (Abz-RRRRSAG-nTyr) developed previously (Li et al., “Existing Drugs as Broad-Spectrum and Potent Inhibitors for Zika Virus by Targeting NS2B-NS3 Interaction,” Cell Research 27(8):1046-1064 (2017), which is hereby incorporated by reference in its entirety) was used as the substrate for inhibition of trypsin and papain proteases. In black and clear-bottom 96-well plates, 1 μg trypsin (Sigma-Aldrich) was incubated with DMF or compounds at 400 μM at 25° C. for 30 min in a 70 μl reaction buffer containing 20 mM Tris, pH 8.0, 100 mM NaCl, 5% Glycerol, and 0.05% CHAPS. For papain, 1 μg Papain (Sigma-Aldrich) was incubated with compounds at 400 μM at 25° C. for 30 min in a 70 μl reaction buffer composed of 1.1 mM EDTA, 0.067 mM β-mercaptoethanol, 5.5 mM cysteine. […]

With `O=C(Nc1ccc(F)cc1)c1nnsc1S(=O)(=O)c1ccc(Cl)cc1` [6G-318S, 5-[(4-chlorophenyl)sulfonyl]-N-(4-fluorophenyl)-1,2,3-thiadiazole-4-carboxamide] the “reduction of binding affinity by Cys1 to alanine mutation” value (C1A Prp8 intein mutant) was roughly 3 fold, the MFC (C. neoformans strain H99) was 1.25 µg/mL (≈ 3.14 µM) and the CC50 at 48 h (in vitro) was 13.9 µg/mL and ~35 µM. It also gave an MIC (C. neoformans H99 strain; C. neoformans H99, microbroth dilution, read-out: MIC H99) of 1.56 µM, an MIC (C. neoformans H99 strain; C. neoformans and other related species, read-out: minimum inhibitory concentration (MIC) 90) of 0.6 to 1 µg/mL and an MIC (C. neoformans H99 strain; H99 strain, 48 h, 30° C., read-out: MIC C. neoformans) of 0.62 µg/mL. The “MIC C. neoformans” value (C. neoformans H99 strain; H99 strain, 48 h, 30° C.) was 0.6 µg/mL (≈ 1.51 µM), the “MIC with empty vector or AAAA mutant Prp8 intein-transformed H99 cells” value [1] was “identical MIC values” and the “increase of MIC in H99 transformed with WT Prp8 intein” value ([1]; compared to H99 with empty vector or AAAA mutant) was 4 fold. The “inhibition of papain protease activity” value (papain) was “neither 6G-318S, 6G-319S, nor cisplatin significantly inhibited”.

— patent US20230233533A1, “COMPOSITIONS, METHODS OF TREATING AND PREVENTING FUNGAL INFECTIONS, AND METHODS OF INHIBITING PRP8 INTEIN EXPRESSION” (Health Research, Inc., priority 2020, published 2023)
